Data from the supplement of paper PMC10307832.

What was measured:
Assay in all cases: relative viability (nuclei count vs DMSO), 5 days (fraction); higher = more cells survive
[1] = compound: O=C(/C=C/c1cccnc1)NCCCCC1CCN(C(=O)c2ccccc2)CC1 [Daporinad] + CC(C)C[C@H](NC(=O)[C@H](Cc1ccccc1)NC(=O)c1cnccn1)B(O)O [Bortezomib] (partner 0.002 µM)
Method in brief: (§1)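 Cells from lung cancer lines were seeded into 1536-well plates and, one day later, dosed by pin tool. Treatments were either a single drug or a fixed dose of an anchor drug with five library-drug doses (not always all listed) in √10 steps. After 5 days, nuclei were stained in a one-step fixation (final 0.05% Triton X-100, 1% formaldehyde, 1 ug/ml Hoechst) and counted on 4× images, and relative viability is the treated-to-vehicle nuclei ratio, as the median of duplicate plates.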

[2] = compound: O=C(/C=C/c1cccnc1)NCCCCC1CCN(C(=O)c2ccccc2)CC1 [Daporinad] + C[C@]1(O)C[C@@H](c2nc(-c3ccc4ccc(-c5ccccc5)nc4c3)c3c(N)nccn32)C1 [Linsitinib] (partner 1 µM)
Method in brief: as §1

[3] = compound: COc1cc(Nc2ncc(F)c(Nc3ccc4c(n3)NC(=O)C(C)(C)O4)n2)cc(OC)c1OC [R406] + Cc1nc(NC(=O)N2CCC[C@H]2C(N)=O)sc1-c1ccnc(C(C)(C)C(F)(F)F)c1 [Alpelisib] (partner 2 µM)
Method in brief: as §1

[4] = compound: COc1cc(Nc2ncc(F)c(Nc3ccc4c(n3)NC(=O)C(C)(C)O4)n2)cc(OC)c1OC [R406] + O=C(c1cc(Cc2n[nH]c(=O)c3ccccc23)ccc1F)N1CCN(C(=O)C2CC2)CC1 [Olaparib] (partner 8 µM)
Method in brief: as §1

Row | Cell Line | relative viability ([1]; first compound 0.0005 µM) | relative viability ([1]; first compound 0.001581 µM) | relative viability ([1]; first compound 0.005 µM) | relative viability ([1]; first compound 0.01581 µM) | relative viability ([2]; first compound 0.0005 µM) | relative viability ([2]; first compound 0.001581 µM) | relative viability ([2]; first compound 0.005 µM) | relative viability ([2]; first compound 0.01581 µM) | relative viability ([3]; first compound 0.08 µM) | relative viability ([3]; first compound 0.253 µM) | relative viability ([3]; first compound 0.8 µM) | relative viability ([3]; first compound 2.53 µM) | relative viability ([3]; first compound 8 µM) | relative viability ([4]; first compound 0.08 µM) | relative viability ([4]; first compound 0.253 µM) | relative viability ([4]; first compound 0.8 µM) | relative viability ([4]; first compound 2.53 µM) | relative viability ([4]; first compound 8 µM)
1 | HCC-44 | 0.83 | 0.843 | 0.841 | 0.825 | 0.655 | 0.635 | 0.762 | 0.714 | 0.787 | 1 | 0.883 | 0.739 | 0.262 | 0.95 | 1 | 0.954 | 0.989 | 1.06
2 | HCC-827 | 1.06 | 0.965 | 1.14 | 1.13 | 1 | 0.998 | 1.02 | 0.921 | 1.04 | 0.903 | 1.03 | 0.827 | 0.282 | 0.724 | 0.663 | 0.667 | 0.522 | 0.545
3 | NCI-H2342 |  |  |  |  |  |  |  |  |  |  |  |  |  | 0.395 | 0.415 | 0.447 | 0.355 | 0.439
4 | NCI-H2347 | 1.15 | 1.03 | 0.922 | 1.41 | 1.1 | 1.03 | 1 | 0.981 | 0.984 | 1.15 | 1.12 | 0.791 | 0.856 | 0.556 | 0.583 | 0.604 | 0.531 | 0.47
5 | PC-3 [JPC-3] | 0.85 | 0.864 | 0.844 | 0.827 | 0.898 | 0.99 | 0.963 | 0.955 | 0.988 | 1.15 | 1.13 | 0.902 | 0.699 | 1.15 | 1.3 | 1.13 | 0.838 | 0.452
6 | NCI-H1651 | 0.953 | 0.952 | 1.01 | 0.788 | 0.928 | 0.935 | 0.839 | 0.838 | 0.9 | 1.03 | 1.04 | 0.699 | 0.512 | 0.19 | 0.193 | 0.177 | 0.173 | 0.172
7 | HARA | 0.979 | 1.12 | 1.15 | 0.345 | 0.949 | 0.937 | 1.03 | 0.188 | 0.801 | 0.721 | 0.879 | 0.637 | 0.249 | 0.826 | 0.496 | 0.705 | 0.779 | 0.17
8 | NCI-H1650 | 0.182 | 0.222 | 0.219 | 0.187 |  |  |  |  |  |  |  |  |  | 0.911 | 0.808 | 0.798 | 0.787 | 0.647
9 | NCI-H1395 |  |  |  |  | 1.01 | 1.23 | 0.999 | 1.44 | 1.13 | 1.04 | 1.09 | 0.813 | 0.619 | 0.455 | 0.475 | 0.444 | 0.421 | 0.362
10 | NCI-H441 |  | 0.476 | 0.486 | 0.443 | 0.533 | 0.473 | 0.605 | 0.56 |  | 0.843 | 0.878 |  | 0.296 | 0.429 | 0.693 | 0.619 | 0.489 | 0.322
11 | LU99A | 1.11 | 1.17 | 1.36 | 1.44 | 0.497 | 0.55 | 0.604 | 0.572 | 0.462 | 0.468 | 0.617 |  | 0.193 | 0.244 | 0.258 | 0.267 | 0.218 | 0.234
12 | NCI-H1355 | 1.16 | 1.2 | 1.35 | 1.07 | 0.798 | 1.02 | 0.9 | 0.876 | 0.838 | 0.917 | 0.985 | 0.547 | 0.497 | 0.675 | 0.8 | 0.82 | 0.569 | 0.374
13 | HCC-78 | 0.367 | 0.502 | 0.345 | 0.642 | 0.541 | 0.619 | 0.767 | 0.921 | 0.313 | 0.33 | 0.377 | 0.295 | 0.214 | 0.83 | 0.896 | 0.848 | 0.656 | 0.394
14 | NCI-H1563 | 0.917 | 0.958 | 0.838 | 0.691 | 1.29 | 1.21 | 1.07 | 0.739 | 0.938 | 0.996 | 0.924 | 0.682 | 0.634 |  |  |  |  | 
15 | HCC-15 | 0.989 | 1.13 | 1.07 | 1.04 | 0.79 | 0.943 | 0.926 | 0.928 | 0.859 | 0.887 | 0.981 |  | 0.753 | 0.653 | 0.839 | 0.675 | 0.725 | 0.505
16 | EKVX | 0.939 | 1.16 | 1.12 | 1.12 | 1.04 | 1.09 | 0.913 | 1.18 | 0.928 | 0.992 | 1.06 | 0.77 | 0.635 | 0.928 | 0.971 | 0.995 | 0.717 | 0.655
